Consider 2 molecules from patent US20110275577A1, “METHODS OF TREATING DERMATOLOGIC, GYNECOLOGIC, AND GENITAL DISORDERS WITH CAFFEIC ACID ANALOGS” (Moleculin, LLC, priority 2010, published 2011).

Molecules are shown by their SMILES.

In this test the test system is psoriasis patients. In words: Human Psoriasis Study of WP1220 and CABE (pilot study). In kind it is in vivo. Particulars: topical treatment; psoriasis patients not responsive to current standard therapies. The procedure:
Human Psoriasis Study of WP1220 and CABE—The compounds WP1220 and CABE were tested in a pilot study of psoriasis patients who were not responsive to current standard therapies.

Take `O=C(/C=C/c1ccc(O)c(O)c1)OCc1ccccc1` [CABE, (E)-Benzyl 3-(3,4-dihydroxyphenyl)acrylate]: the “patients responded with substantial improvement or complete resolution of psoratic lesions” value was “five out of seven”.
To `C[C@H](NC(=O)/C(C#N)=C/C=C/c1cccc(Br)n1)c1ccccc1` [WP1220, (2E,4E)-5-(6-bromopyridin-2-yl)-2-cyano-N—((S)-1-phenylethyl)penta-2,4-dienamide] belongs “seven out of seven”.
